Assay results: patent US20240376099A1, “COMPOUNDS AND COMPOSITIONS AS INHIBITORS OF ENDOSOMAL TOLL-LIKE RECEPTORS” (Novartis AG, priority 2016, published 2024)

What was measured:
[1] = molecular target: T1, TLR7 (Homo sapiens, UniProt Q9NYK1); assay: huPBMC TLR7 Antagonist IFNα Assay; format: cell-based; conditions: human PBMCs stimulated with ssRNA40 10 μg/mL (DOTAP), 14-16 hrs; IFNα2b AlphaLISA read-out
T1 construct: Fresh blood was collected from normal human donors; endogenous in cells; host or cells: human PBMCs from fresh donor blood
T1 sequence (Q9NYK1 27-1049): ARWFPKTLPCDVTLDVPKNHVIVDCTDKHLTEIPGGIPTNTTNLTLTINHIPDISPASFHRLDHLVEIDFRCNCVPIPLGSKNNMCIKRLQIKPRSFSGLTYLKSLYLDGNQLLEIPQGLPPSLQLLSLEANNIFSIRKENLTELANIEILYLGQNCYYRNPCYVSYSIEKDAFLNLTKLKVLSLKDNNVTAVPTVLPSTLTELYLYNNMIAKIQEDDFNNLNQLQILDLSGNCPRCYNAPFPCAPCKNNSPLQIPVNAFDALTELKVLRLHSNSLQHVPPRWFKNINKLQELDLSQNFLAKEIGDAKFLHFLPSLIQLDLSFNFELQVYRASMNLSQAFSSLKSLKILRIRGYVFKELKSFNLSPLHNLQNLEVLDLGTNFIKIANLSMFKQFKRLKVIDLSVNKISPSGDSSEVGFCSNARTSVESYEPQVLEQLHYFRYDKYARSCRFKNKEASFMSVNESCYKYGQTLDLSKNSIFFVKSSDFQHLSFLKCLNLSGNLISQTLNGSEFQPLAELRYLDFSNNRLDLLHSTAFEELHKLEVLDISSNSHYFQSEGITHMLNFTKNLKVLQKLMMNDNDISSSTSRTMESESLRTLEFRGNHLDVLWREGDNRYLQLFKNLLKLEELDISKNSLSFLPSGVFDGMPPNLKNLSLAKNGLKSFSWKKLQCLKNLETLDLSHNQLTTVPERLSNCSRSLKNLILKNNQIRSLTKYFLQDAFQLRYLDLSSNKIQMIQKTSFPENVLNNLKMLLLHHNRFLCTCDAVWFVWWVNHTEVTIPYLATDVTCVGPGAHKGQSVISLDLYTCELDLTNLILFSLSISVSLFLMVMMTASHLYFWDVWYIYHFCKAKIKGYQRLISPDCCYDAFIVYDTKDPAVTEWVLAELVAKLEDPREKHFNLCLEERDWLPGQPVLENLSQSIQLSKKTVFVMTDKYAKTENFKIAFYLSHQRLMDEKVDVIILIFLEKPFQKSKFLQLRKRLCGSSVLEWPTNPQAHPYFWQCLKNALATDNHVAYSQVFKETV
Experimental: (§1) Compounds were generally serially diluted (1/3) in DMSO and plated on sterile 384 well tissue culture plates and stored until ready for use. Each ten-point dilution was typically plated in triplicate in parallel rows.
(§2) Fresh blood was collected from normal human donors underwritten informed consent in heparinized syringes on the morning of the assay. The blood was diluted in RPMI-1640 medium and the white blood cells were separated from red blood cells by centrifugation (800 g 15′ 0 acceleration, 0 brake) on a Ficoll cushion. Peripheral blood mononuclear cells (PBMCs) were separated from platelets by a series of low-speed centrifugations (1000RPM 10′) in PBS+5% HI—FBS and 1 mM EDTA. Purified PBMCs were re-suspended in assay medium (RPMI-1640 w Glutamax (Invitrogen) supplemented with 5% HI—FBS, 10 mM HEPES, 50 uM β-mercaptoethanol, and 100 mG/L penicillin/streptomycin cocktail). Viable PBMCs were counted on a hemacytometer and kept on ice until ready for plating.
(§3) A 4× concentration (4 ug/ml or 40 ug/ml for TLR8 or TLR7 assays, respectively) of the TLR7/8 agonist ssRNA40 (IDT) was complexed with 10% DOTAP (Roche) in assay medium for 30 min prior to addition to the PBMC suspension (5 million cells/ml). After addition, the final concentration of ssRNA40 in the TLR7/8 stimulated PBMC suspension was 1 μg/ml for TLR8 assay, and 10 μg/mL for the TLR7 assay. The final DOTAP concentration was 2.5%. Diluted PBMCs (5 million cells/ml) were treated with 4×TLR9 agonist ODN2216 (Invivogen). Final concentration of ODN2216 in TLR9 stimulated PBMC suspension was 0.3 μM.
(§4) Agonist stimulated PBMCs were plated on the compound treated 384 well plates at 150,000 cells/well. Un-stimulated PBMCs were plated as controls on each plate. Plating volume was 40 μL per well. DMSO concentration in each well was 0.25%.
(§5) A separate plate, without compounds, with titrations of ssRNA40 and ODN2216 was included in every assay to measure agonist response of each donor's PBMC prep. Assay plates were placed in a tissue culture incubator (37° C., 5% CO2) for 14-16 hrs. After this incubation, the plates were centrifuged and stored at −20° C. until they were assayed.
(§6) IL-6 TR-FRET Assay for TLR8 activity: • 1) Cisbio Human IL-6 kit, 20,000 tests (62TNFPEC), and GNF High-Base TC 384 well plates (cat #789163G) were used; • 2) the Anti-TIL-6 Cryptate conjugate and the Anti-IL-6 XL665 conjugate were diluted 1:20 in Reconstitution Buffer; • 3) a 1:1 mixture of 3 μl/well Anti-IL-6 Cryptate conjugate and 3 μl/well Anti-IL-6 XL665 conjugate was prepared; • 4) 6 μl/well HTRF dilution mastermix was added to 6 μl of transferred supernatant samples in proxiplates; • 5) The plates were incubated for 3 hrs at rt in the dark; and • 6) the levels of IL-6 production was measured using an Envision plate reader (665 nm (emmission)/590 nm (excitation)) with HTRF settings and ratiometric read-out: (XL665 emission/Eu Cryptate emission)×10,000. IFNα2b AlphaLISA Assay for TLR7 or TLR9 activity After thawing the assay plates, 6 μL of supernatant samples were transferred to a low-volume AlphaPlate 384SW (Perkin-Elmer). The concentration of IFNα in supernatants was measured using the IFNα2b AlphaLISA Assay (Perkin-Elmer: AL297F). 3 μL of IFNα acceptor beads/biotinylated antibody solution was added first, using laboratory automation. After an hour incubation, […] of streptavidin […] bead solution was added. The plates containing this mixture were incubated in the dark for an hour and read on an appropriate plate reader at reading parameters set by the manufacturer. (Envision, EnSpire: Perkin-Elmer).

[2] = molecular target: T2, TLR8 (Homo sapiens, UniProt Q9NR97); assay: huPBMC TLR8 Antagonist IL-6 TR-FRET Assay; format: cell-based; design: Fresh blood was collected from normal human donors; endogenous in cells; host or cells: human PBMCs from fresh donor blood; conditions: human PBMCs stimulated with ssRNA40 1 μg/ml (DOTAP), 14-16 hrs; IL-6 TR-FRET read-out
T2 sequence (Q9NR97 27-1041): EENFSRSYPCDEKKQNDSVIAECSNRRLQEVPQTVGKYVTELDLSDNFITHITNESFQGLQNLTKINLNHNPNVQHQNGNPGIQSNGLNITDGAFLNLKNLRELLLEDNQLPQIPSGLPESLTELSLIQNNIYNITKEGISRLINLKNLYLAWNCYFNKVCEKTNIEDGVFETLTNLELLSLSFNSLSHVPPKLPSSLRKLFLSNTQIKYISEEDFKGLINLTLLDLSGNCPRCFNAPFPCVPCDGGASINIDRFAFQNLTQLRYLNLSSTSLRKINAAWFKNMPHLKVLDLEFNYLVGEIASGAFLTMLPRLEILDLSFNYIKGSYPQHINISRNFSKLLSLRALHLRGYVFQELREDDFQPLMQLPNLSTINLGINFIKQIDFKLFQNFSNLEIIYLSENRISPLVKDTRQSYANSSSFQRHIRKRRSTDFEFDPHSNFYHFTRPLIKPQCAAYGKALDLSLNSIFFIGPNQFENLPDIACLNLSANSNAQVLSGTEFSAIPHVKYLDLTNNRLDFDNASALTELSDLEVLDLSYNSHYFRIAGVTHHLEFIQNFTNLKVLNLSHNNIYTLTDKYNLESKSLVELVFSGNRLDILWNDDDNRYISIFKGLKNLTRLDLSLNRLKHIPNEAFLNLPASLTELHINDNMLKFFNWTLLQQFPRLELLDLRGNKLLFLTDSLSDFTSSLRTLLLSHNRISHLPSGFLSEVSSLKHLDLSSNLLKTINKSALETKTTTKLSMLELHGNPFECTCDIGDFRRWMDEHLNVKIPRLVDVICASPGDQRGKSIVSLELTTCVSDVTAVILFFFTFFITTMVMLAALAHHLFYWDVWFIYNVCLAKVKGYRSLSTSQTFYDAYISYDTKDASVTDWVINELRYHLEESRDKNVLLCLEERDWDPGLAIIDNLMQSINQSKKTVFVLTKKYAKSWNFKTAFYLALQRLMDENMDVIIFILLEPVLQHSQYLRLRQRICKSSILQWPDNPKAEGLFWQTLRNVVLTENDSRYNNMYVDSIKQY
Experimental: as §1, §2, §3, §4, §5, §6

Row | Structure (SMILES) | IC50 [1] [nM] | IC50 [2] [nM]
1 | Cc1cc(N2CCc3c(c(C)nn3CC34CCC(NC(=O)CN(C)S(C)(=O)=O)(CC3)CC4)C2)c2cnn(C)c2n1 [compound 138, N-(4-((5-(1,6-dimethyl-1H-pyrazolo[3,4-b]pyridin-4-yl)-3-methyl-4,5,6,7-tetrahydro-1H-pyrazolo[4,3-c]pyridin-1-yl)methyl)bicyclo[2.2.2]octan-1-yl)-2-(N-methylmethylsulfonamido)acetamide] | 6 | 2790
2 | CC(=O)N(C)CC(=O)NC12CCC(Cn3nc(C)c4c3CCN(c3cc(C)nc5c3cnn5C)C4)(CC1)CC2 [compound 139, N-(4-((5-(1,6-dimethyl-1H-pyrazolo[3,4-b]pyridin-4-yl)-3-methyl-4,5,6,7-tetrahydro-1H-pyrazolo[4,3-c]pyridin-1-yl)methyl)bicyclo[2.2.2]octan-1-yl)-2-(N-methylacetamido)acetamide] | 67 | 3540
3 | Cc1cc(N2CCc3c(c(C)nn3CC34CCC(N5C[C@H]6CC[C@@H](C5)O6)(CC3)CC4)C2)c2cnn(C)c2n1 [compound 120, (1R,5S)-3-(4-((5-(1,6-dimethyl-1H-pyrazolo[3,4-b]pyridin-4-yl)-3-methyl-4,5,6,7-tetrahydro-1H-pyrazolo[4,3-c]pyridin-1-yl)methyl)bicyclo[2.2.2]octan-1-yl)-8-oxa-3-azabicyclo[3.2.1]octane] | 4 | 20
4 | Cc1cc(N2CCc3c(c(C)nn3CC34CCC(N5CCCCC5)(CC3)CC4)C2)c2cnn(C)c2n1 [compound 67, 5-(1,6-dimethyl-1H-pyrazolo[3,4-b]pyridin-4-yl)-3-methyl-1-((4-(piperidin-1-yl)bicyclo[2.2.2]octan-1-yl)methyl)-4,5,6,7-tetrahydro-1H-pyrazolo[4,3-c]pyridine] | 5 | 11
5 | Cc1cc(N2CCc3c(c(C)nn3CC34CCC(NS(C)(=O)=O)(CC3)CC4)C2)c2cnn(C)c2n1 [Compound No. 48, N-(4-((5-(1,6-dimethyl-1H-pyrazolo[3,4-b]pyridin-4-yl)-3-methyl-4,5,6,7-tetrahydro-1H-pyrazolo[4,3-c]pyridin-1-yl)methyl)bicyclo[2.2.2]octan-1-yl)methanesulfonamide] | 13 | 
6 | Cc1nc(N2CCc3c(c(C)nn3CC34CCC(NC(=O)C5CNC5)(CC3)CC4)C2)c2c(n1)c(C)nn2C [compound 32, N-(4-((3-methyl-5-(1,3,5-trimethyl-1H-pyrazolo[4,3-d]pyrimidin-7-yl)-4,5,6,7-tetrahydro-1H-pyrazolo[4,3-c]pyridin-1-yl)methyl)bicyclo[2.2.2]octan-1-yl)azetidine-3-carboxamide] | 124 | 125
7 | Cc1nn(CC23CCC(N)(CC2)CC3)c2c1CN(c1ccnc(-c3ccccc3)c1)CC2 [compound 63, 4-((3-methyl-5-(2-phenylpyridin-4-yl)-4,5,6,7-tetrahydro-1H-pyrazolo[4,3-c]pyridin-1-yl)methyl)bicyclo[2.2.2]octan-1-amine] | 34 | 568
8 | Cc1cc(N2Cc3cnn(CC45CCC(N)(CC4)CC5)c3C(C)(C)C2)c2cnn(C)c2n1 [compound 60, 4-((5-(1,6-dimethyl-1H-pyrazolo[3,4-b]pyridin-4-yl)-7,7-dimethyl-4,5,6,7-tetrahydro-1H-pyrazolo[4,3-c]pyridin-1-yl)methyl)bicyclo[2.2.2]octan-1-amine] | 1030 | 277
9 | Cc1cc(N2CCc3c(c(C)nn3CC34CCC(N)(CC3)CC4)C2)c2ccn(C)c2n1 [Compound No. 5, 4-((5-(1,6-dimethyl-1H-pyrrolo[2,3-b]pyridin-4-yl)-3-methyl-4,5,6,7-tetrahydro-1H-pyrazolo[4,3-c]pyridin-1-yl)methyl)bicyclo[2.2.2]octan-1-amine] | 397 | 433
